From patent US20240263159A1, “GENE EDITING IN PRIMARY IMMUNE CELLS USING CELL PENETRATING CRISPR-CAS SYSTEM” (THE TRUSTEES OF THE UNIVERSITY OF PENNSYLVANIA, priority 2021, published 2024)

Key:
[1] = system: Thy1 and Ptprc genes; assay: Cas9-PAGE with retroviral sgRNA in murine primary CD8 T cells ex vivo (flow cytometry, TIDE assay); assay type: cell-based; settings: sgThy1_IG1 or sgNeg, various concentrations of TH, 5 μM Cas9-T6N^CPP, 30 min
Experimental: FIG. 12A: A schematic of the experimental workflow of evaluating the PAGE system in murine primary CD8 T cells ex vivo. Murine primary T cells were activated with anti-CD3, anti-CD28 and IL-2, followed by retroviral transduction with a sgRNA expression vector linked with mCherry fluorescent marker. […] Gene editing was evaluated at various time points by flow cytometry against indicated gene products or via direct sanger sequencing of the targeted genomic regions. […] Cells were transduced with either sgThy1_IG1 or sgNeg, followed by 30 min incubation with various concentrations of TH and 5 μM Cas9-T6N^CPP. Flow cytometry analysis was performed at the indicated days post-treatment. […] FIG. 12C: Mean Fluorescent Intensity (MFI) quantification of the flow cytometry analysis at 4 days post-treatment in FIG. 12B (left panel). […] FIG. 12E: Quantification of live cell recovery of CD8 T cells treated with an increased concentration of TH. […] Genomic DNA was isolated at day 6 post-treatment of PAGE, sanger sequenced, and followed by quantification via an online TIDE analysis tool. sgThy1_IG1, sgThy1_IG2, sgThy1_IG3, sgRNAs targeting the Immunoglobulin domain of Thy1 gene; sgPtprc_CAT1 and sgPtprc_TM1, sgRNAs targeting either the catalytic domain or transmembrane domain of Ptprc gene; sgNeg, an sgRNA targeting Ano9 gene was used as a negative control here. […]

[2] = system: CD90.2; assay: in vitro editing in mouse primary CD8 T cells, CD90.2 knockdown by flow cytometry; assay type: cell-based
[3] = system: 8.7 kb DNA fragment; assay: in vitro DNA cleavage assay; assay type: biochemical; settings: Cas9 RNP with sgRNA, 37° C.
Experimental: Cas9 RNPs were assembled by incubating purified spCas9 or TAT-4×Myc NLS-Cas9 with sgRNA targeting a 8.7 kb DNA fragment, and incubated with the DNA fragment for 1, 5, 10, and 15 min at 37° C. The reaction was stopped and the DNA products were separated on a 0.8% agarose gel. Uncut band (˜8.7 kb) and two cleaved bands (˜2.7 kb and 6 kb) are shown on the gel.
TAT-4×Myc NLS-Cas9 expression construct was created by replacing the 4×SV40 NLS (PKKKRKV (SEQ ID NO: 1423)) at the N-terminus of Cas9 (Staahl et al., (2017) Nat Biotechnol 35, 431-434) with 4×Myc NLS ([…] (SEQ ID NO: 1)) with linker -G-G-S- between Myc NLS. The sequence of the TAT cell penetrating peptide ([…] (SEQ ID NO: 2)), derived from the trans-activating transcriptional activator (Tat) from HIV-1 (Frankel and Pabo, 1988; Green and Loewenstein, 1988), was added to the N-terminus, and TAT-4×Myc NLS-Cas9 was cloned into a bacterial recombinant protein expression vector (Gootenberg et al., 2017) with a Twin-Strep and SUMO tag (FIG. 1A). Next, TAT-4×Myc NLS-Cas9 protein was purified by Strep-Tactin affinity chromatography followed by on-column SUMO protease digestion, ion exchange chromatography (IEC), and size exclusion chromatography (SEC) (FIG. 1B) (Gootenberg et al., (2017) Science 356, 438-442).

[4] = system: PD-1; settings: mouse, in vivo
[5] = system: CD45.2; assay: in vitro editing in mouse primary CD8 T cells, CD45.2 knockdown by flow cytometry; assay type: cell-based; settings: CD45.2 sgRNA_1, 5 μM TAT-4×Myc NLS-Cas9, 75 μM dTAT-HA2, Day 4
Experimental: FIG. 3C: An example of flow plots showing the percentage of sgRNA+Cas9+ for Rosa and CD45.2.
FIG. 3D: Target genes are knocked down during Days 1-5 in vitro culture as measured by flow cytometry.
RN2-Cas9 cells were infected with retrovirus expressing sgRNA and mCherry, and CD45.2 expression level was measured by flow cytometry after 3 days of infection. Both sgRNAs targeting CD45.2 efficiently knocked down CD45.2 compared to sgRNAs targeting Rosa26 (FIG. 3A). It was next tested whether TAT-4×Myc Cas9 can edit the genome in mouse primary CD8 T cells. Briefly, on Day −2, primary CD8 T cells were isolated from 3-month-old mouse spleen and activated by CD3, […], and IL-2 for 24 hours. On Day −1, the activated cells were infected with retrovirus expressing sgRNA and mCherry for 24 hours. Cells were then treated with 5 μM TAT-4×Myc NLS-Cas9 (with GFP tag) and 75 μM dTAT-HA2, and incubated in RPMI 1640 supplied with 1% FBS and 50 μM 2-mercaptoethanol in a 37° C. incubator for 40 min. […] CD45.2 expression level was measured by flow cytometry from Day 1 to Day 5. […] The stability of TAT-4×Myc NLS-Cas9 was evaluated in the cells by measuring normalized Mean Fluorescence Intensity (MFI) of GFP.

[6] = system: EL4 mCherry reporter cell line; assay: EL4 mCherry reporter gene editing, loss of mCherry by flow cytometry; settings: 5 μM TAT-4×Myc NLS-Cas9, 75 μM dTAT-HA2, 30 min, no FBS

dTAT-HA2 [TH]
Cas9-T6N^CPP gene editing in murine primary CD8 T cells [1]: promoted Cas9-T6N^CPP gene editing

TAT-4×NLS^MYC-Cas9-2×NLS^SV40-sfGFP [TAT-4×Myc NLS-Cas9]
percentage of CD90.2 knockdown cells, maximum ([2]; CD90.2 sgRNA_2, 5 μM TAT-4×Myc NLS-Cas9, 75 μM dTAT-HA2, Day 3): ~90% | percentage of CD90.2 knockdown cells, maximum ([2]; CD90.2 sgRNA_3, 5 μM TAT-4×Myc NLS-Cas9, 75 μM dTAT-HA2, Day 3): ~70% | DNA cleavage [3]: efficiently cleaved DNA | PD-1 expression [4]: ~20% | percentage of sgRNA^+P14 T cell population and total number of sgRNA^+P14 T cells [4]: increased | percentage of CD45.2 knockdown cells, maximum [5]: ~60% | percentage of mCherry^− cells [6]: 92.9%
